These results are taken from PMC8138732, “Comparative study of His- and Non-His-tagged CLIC proteins, reveals changes in their enzymatic activity” (Biochemistry and Biophysics Reports, 2021).

The term Km denotes the substrate concentration at which the rate is half of its maximum.

The target in one test is T1, non-His-tagged CLIC3 (Homo sapiens, UniProt O95833).
T1 construct: E. coli BL21(DE3); Ni-NTA and SEC; reduced soluble monomer
Briefly: HEDS assay coupled to glutathione reductase, NADPH consumption at […] nm. In kind it is biochemical. As to conditions: 1 mM GSH fixed, 250 uM NADPH, 0.5 ug/mL GR, 10 uM enzyme, 5 mM potassium phosphate, 1 mM EDTA, pH 7, 37 C; imidazole-free storage buffer.

For a further test, the target named is non-His-tagged CLIC1 (Homo sapiens, UniProt O00299). The settings on record: 1 mM GSH fixed, 250 uM NADPH, 0.5 ug/mL GR, 10 uM enzyme, 5 mM potassium phosphate, 1 mM EDTA, pH 7, 37 C; imidazole-free storage buffer.

T1 sequence (O95833 whole entry): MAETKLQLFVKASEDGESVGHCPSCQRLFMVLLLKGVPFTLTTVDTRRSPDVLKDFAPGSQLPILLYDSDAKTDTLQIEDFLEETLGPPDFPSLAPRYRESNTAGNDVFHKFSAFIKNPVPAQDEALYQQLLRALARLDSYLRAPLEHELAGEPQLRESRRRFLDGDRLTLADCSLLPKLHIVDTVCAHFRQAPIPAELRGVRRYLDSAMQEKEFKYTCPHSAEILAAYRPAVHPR

As for `OCCSSCCO` [HEDS], the Km worked out at 994 µM on non-His-tagged CLIC3 and 2500 µM at non-His-tagged CLIC1.
